Assays:
[1] = tested on: streptozotocin-induced Type 1 diabetic model in Wistar rats; test: Oral glucose tolerance test (post prandial glucose) in streptozotocin-induced diabetic rats; format: in vivo; details: OGTT, glucose 2.5 g/kg oral gavage
Description: (§1) The study was conducted in adult male Wistar rats weighing 200-250 gm for a period of 40 days (30 days of treatment and 10 days of induction). The animals were randomly divided into seven groups comprising six each. Diabetes was induced in all the groups except the normal control group by the intra peritoneal administration of streptozotocin at 50 mg/kg. After the induction of diabetes, one group was kept as diabetic untreated control and a positive control was maintained in which the animals were treated with standard drug, glibenclamide at 3 mg/kg orally. All the other diabetic induced groups were treated with different extracts at 300 mg/kg orally. The effect of the different fractions was assessed by measuring the fasting blood glucose level, post prandial blood glucose level, serum insulin levels and glycosylated Hb. The anti hyperlipidemic effect was assessed by the estimation of total cholesterol, triglyceride, LDL cholesterol, HDL cholesterol, VLDL, muscle glycogen and liver glycogen. The antioxidant effects of the different extracts were assessed by the measuring TBARS, superoxide dismutase (SOD), catalase, reduced glutathione (GSH) and glutathione peroxidase levels (GPx). TBARS was determined by TBA assay (Ohkawa et al., 1979), SOD was measured using the nitroblue tetrazolium reduction method (Kakkar et al., 1984), Catalase was assayed using the method described by Aebi (1974). GPx was measured as described by Flohe and Gunzler (1984), GSH was measured as per the method of Jollow et al., (1974). Histopathological examination of pancreas was conducted to assess the antidiabetic effect of the different fractions of Costus pictus D. Don.
Oral glucose tolerance test (OGTT) was performed following a glucose challenge of 2.5 g/kg by oral gavage. Blood glucose was recorded at 30 min (PPG1), 60 min (PPG2), 120 min (PPG3) and 240 min (PPG4), after the glucose challenge on day 1, day 15 and day 30 of the study.

[2] = tested on: streptozotocin-induced Type 1 diabetic model in Wistar rats; test: Antioxidant enzymes and TBARS in streptozotocin-induced diabetic rats; format: in vivo; details: extracts 40 mg/kg orally, glibenclamide 3 mg/kg orally
Description: as §1, with “After the induction of diabetes, one group was kept as diabetic untreated control and a positive control was maintained in which the animals were treated with standard drug, glibenclamide at 3 mg/kg orally. All the other diabetic induced groups were treated with different extracts at 300 mg/kg orally.” left out

[3] = tested on: streptozotocin-induced Type 1 diabetic model in Wistar rats; test: Pancreatic histopathology in streptozotocin-induced diabetic rats; format: in vivo; details: for beta cell staining in islet of Langerhans (immune histochemistry, in words): FIG. 13-17
Description: as §1, with “After the induction of diabetes, one group was kept as diabetic untreated control and a positive control was maintained in which the animals were treated with standard drug, glibenclamide at 3 mg/kg orally. All the other diabetic induced groups were treated with different extracts at 300 mg/kg orally.” left out

[4] = tested on: isolated mouse islets; test: In vitro insulin secretogogue effect using isolated mouse islets; format: cell-based, mice (Swiss albino strain); details: 10 nM
Text: In vitro insulin secretogogue effect of the different fractions of Costus pictus D. Don using isolated mouse islets.
Four to six weeks old male mice (Swiss albino strain; weighing 25±2 g) used for the study were maintained in the optimum environmental conditions.
Pancreata isolated from animals which were euthanized with CO2 anesthesia according the method of Shewadae et al., (1999) was removed aspectically. Washed thrice with Hank's Balanced Salt Solution (HBSS) and were subjected to collagenase digestion at 37° C. The pancreata was incubated in the dissociation medium (Dulbecco's modified minimum essential medium (DMEM) supplemented with collagenase, Soybean Trypsin Inhibitor and Bovine Serum Albumin fraction V) for 10 minutes. The procedure was repeated thrice and the dissociation was stopped by addition of chilled DMEM with 10% fetal bovine serum to the pancreatic digest. The mixture was centrifuged at 200×g for 10 minutes and the supernatant was discarded. After two washings with DMEM, the pellet was seeded in culture flasks containing DMEM pH-7.2 supplemented with 10% fetal bovine serum. The flasks were incubated at 37° C. in a CO2 incubator.
The viability of the islets was checked by Trypan blue dye exclusion test (Warburton and James, 1995) and this estimate had shown >98% of the cells were viable. […]

COc1ccc(Cl)cc1C(=O)NCCc1ccc(S(=O)(=O)NC(=O)NC2CCCCC2)cc1 [glibenclamide]
PPG1. 1 ([1]; blood glucose at 30 min, day 1): 522.8
PPG1. 15 ([1]; blood glucose at 30 min, day 15): 318.3
PPG1. 30 ([1]; blood glucose at 30 min, day 30): 232.1
PPG2. 1 ([1]; blood glucose at 60 min, day 1): 478.4
PPG2. 15 ([1]; blood glucose at 60 min, day 15): 217.4
PPG2. 30 ([1]; blood glucose at 60 min, day 30): 240.4
PPG3. 1 ([1]; blood glucose at 120 min, day 1): 332.1
PPG3. 15 ([1]; blood glucose at 120 min, day 15): 115.3
PPG3. 30 ([1]; blood glucose at 120 min, day 30): 177.3
PPG4. 1 ([1]; blood glucose at 240 min, day 1): 201.9
PPG4. 15 ([1]; blood glucose at 240 min, day 15): 104.8
PPG4. 30 ([1]; blood glucose at 240 min, day 30): 69.8
Catalase [2]: 59.36 nM H2O2 decomposed/s/g
GPx [2]: 7.54 U/mg of protein
GSH [2]: 38.12 mg/100 g
SOD [2]: 2.96 U/mg protein
TBARS [2]: 0.80 mM MDA/100 g
beta cell staining in islet of Langerhans (immune histochemistry, in words) ([3]; pancreas of streptozotocin-induced diabetic rats): moderately stained and comparable to group 1
beta cell staining in islet of Langerhans (immune histochemistry, in words) ([3]; pancreas of streptozotocin-induced diabetic rats, listed as Glibenclamide): moderately stained beta cells
mean number of islets ([3]; pancreas of streptozotocin-induced diabetic rats, normal group 36, untreated diabetic group 5): 18.66
appearance of islets in pancreas sections (in words) ([3]; versus untreated diabetic control): less shrunken than the untreated diabetic control group
Thirty minutes Concentration of insulin ([4]; thirty minutes): 3.77 ng/mL
Zero minutes Concentration of insulin ([4]; zero minutes): 0.97 ng/mL

Source: US20180228861A1, “COMPOSITION FOR TREATING DIABETES AND DYSLIPIDEMIA OBTAINED FROM THE EXTRACT OF COSTUS PICTUS D.DON PLANT AND A METHOD OF PREPARING THE SAME” (ARJUNA NATURAL EXTRACTS, LTD., priority 2012, published 2018)
